Calls of active or inactive are those of the source. The rule behind the calls is not given here.
Experiments:
[1] = (§1) Anti-inflammatory activity against HBE cells assessed as inhibition of LPS-induced IL-6 level at 5 uM pretreated for 30 mins followed by LPS treatment for 24 hrs by ELISA relative to control; type: functional; conditions: Homo sapiens, time 24.5 hrs
[2] = (§2) Anti-inflammatory activity against HBE cells assessed as inhibition of LPS-induced IL-8 level at 5 uM pretreated for 30 mins followed by LPS treatment for 24 hrs by ELISA relative to control; type: functional; conditions: Homo sapiens, time 24.5 hrs
[3] = Cytotoxicity against HBE cells assessed as cell survival at 10 uM by MTT assay relative to control; type: toxicity, cell-based; conditions: human; for viability at 10 µM: HBE cells, read-out: Survival
[4] = tested on: HBE; experiment: as §2; type: functional; conditions: Homo sapiens, time 24.5 hrs
[5] = tested on: HBE; experiment: as §1; type: functional; conditions: Homo sapiens, time 24.5 hrs

SMILES | inhibition at 5 µM [1] [%] | inhibition at 5 µM [2] [%] | viability at 10 µM [3] [%] | inhibition [4] | inhibition [5] | Activity ([3]; hbe, 10 µM)
Cn1cc(-c2ccnc(Nc3cccnc3)n2)c2ccccc21 | 54 | 56 | < 70 |  |  | 
Cn1cc(-c2ccnc(Nc3ccccc3)n2)c2ccccc21 | 85 |  |  | inactive |  | 
COc1ccccc1Nc1nccc(-c2cn(C)c3ccccc23)n1 | 38 |  |  | inactive |  | 
CCCCNc1nccc(-c2cn(C)c3ccccc23)n1 |  |  | < 70 | inactive | inactive | 
Cn1cc(-c2ccnc(NC3CCCCC3)n2)c2ccccc21 |  |  |  | inactive | inactive | 
Nc1cccc(Nc2nccc(-c3c[nH]c4ccccc34)n2)c1 |  |  |  | Active | Active | Toxic
CC(C)Nc1nccc(-c2cn(C)c3ccccc23)n1 |  |  |  | inactive | inactive | 
Cn1cc(-c2ccnc(Nc3ncccn3)n2)c2ccccc21 |  | 12 |  |  | inactive | 
Cn1cc(-c2ccnc(NC3CC3)n2)c2ccccc21 |  |  | < 70 | inactive | inactive | 
Nc1cccc(Nc2nccc(N)n2)c1 |  |  |  | inactive | inactive | 
Cn1cc(-c2ccnc(Nc3cccc(Cl)c3)n2)c2ccccc21 | 54 | 56 |  |  |  | 
Nc1cccc(Nc2nccc(Nc3ccc(F)c(F)c3)n2)c1 | 54 | 56 |  |  |  | 
Nc1cccc(Nc2nccc(Sc3ccc(Br)cc3)n2)c1 | 54 | 56 |  |  |  | 
N#Cc1cccc(Nc2ccnc(Nc3cccc(N)c3)n2)c1 | 54 | 56 |  |  |  | 
Cc1ccc(Nc2ccnc(Nc3cccc(N)c3)n2)c(C)c1 | 54 | 56 |  |  |  | 
Nc1cccc(Nc2nccc(Sc3ccc(C(F)(F)F)cc3)n2)c1 | 54 | 56 |  |  |  | 
Nc1cccc(Nc2nccc(Oc3ccccc3)n2)c1 | 54 | 56 |  |  |  | 
Cn1cc(-c2ccnc(Nc3cccc(C(=O)O)c3)n2)c2ccccc21 | 54 | 56 |  |  |  | 
CC(C)(C)c1ccc(Nc2ccnc(Nc3cccc(N)c3)n2)cc1 | 54 | 56 |  |  |  | 
CN(c1cccc(N)c1)c1nccc(-c2cn(C)c3ccccc23)n1 |  |  |  | inactive | inactive | 

SMILES | inhibition at 5 µM [1] [%] | inhibition at 5 µM [2] [%] | viability at 10 µM [3] [%] | inhibition [4] | inhibition [5] | Activity ([3]; hbe, 10 µM)
COc1ccc(Oc2ccnc(Nc3cccc(N)c3)n2)cc1OC | 54 | 56 |  |  |  | 
COc1ccc(Sc2ccnc(Nc3cccc(N)c3)n2)cc1 | 54 | 56 |  |  |  | 
Nc1cccc(Nc2nccc(Nc3ccc(Cl)cc3)n2)c1 | 54 | 56 |  |  |  | 
Nc1cccc(Nc2nccc(Nc3cccc(F)c3)n2)c1 | 54 | 56 |  |  |  | 
Nc1cccc(Nc2nccc(Sc3ccc(Cl)cc3)n2)c1 | 54 | 56 |  |  |  | 
COc1ccc(Nc2ccnc(Nc3cccc(N)c3)n2)cc1 | 54 | 56 |  |  |  | 
COc1ccc(N)cc1Nc1nccc(-c2cn(C)c3ccccc23)n1 | 64 | 54 |  |  |  | 
Nc1cccc(Nc2nccc(Nc3ccccc3)n2)c1 | 54 | 56 |  |  |  | 
COc1ccccc1Nc1ccnc(Nc2cccc(N)c2)n1 | 54 | 56 |  |  |  | 
Cc1ccc(Oc2nccc(-c3cn(C)c4ccccc34)n2)cc1 |  |  |  | inactive | inactive | 
Cn1cc(-c2ccnc(Nc3cccc(CC(=O)O)c3)n2)c2ccccc21 | 54 | 56 |  |  |  | 
COc1ccc(Nc2ccnc(Nc3cccc(N)c3)n2)c(OC)c1 | 54 | 56 |  |  |  | 
Cn1cc(-c2ccnc(Nc3cccc(F)c3)n2)c2ccccc21 | 54 | 56 |  |  |  | 
COc1ccc(OC)c(Nc2ccnc(Nc3cccc(N)c3)n2)c1 | 54 | 56 |  |  |  | 
Nc1cccc(Nc2nccc(Nc3cccc(Br)c3)n2)c1 | 54 | 56 |  |  |  | 
Cn1cc(-c2ccnc(Nc3cc(N)ccc3F)n2)c2ccccc21 | 69 | 83 |  |  |  | 
Nc1cccc(Nc2nccc(Nc3ccc(C(F)(F)F)cc3)n2)c1 | 54 | 56 |  |  |  | 
Cn1cc(-c2ccnc(Nc3ccccn3)n2)c2ccccc21 | 68 | 56 | < 70 |  |  | 
Cn1cc(-c2ccnc(Nc3ccc(C(F)(F)F)cc3)n2)c2ccccc21 | 54 | 56 |  |  |  | 

From ChEMBL document CHEMBL6087451, “Design, Synthesis, and Biological Evaluation of 2-Arylaminopyrimidine Derivatives as Dual Cathepsin L and JAK Inhibitors for the Treatment of Acute Lung Injury” (J Med Chem, 2025)
